From patent publication US8841420B2, “Synthetic peptide constructs for the diagnosis and treatment of periodontis associated with Porphyromonas gingivalis” (priority 1997, dated 2014)
No end group written: not given here.

Key:
[1] = molecular target: T1, PrtRII50 Arg-specific proteinase (Porphyromonas gingivalis, UniProt P95493); format: biochemical, Porphyromonas gingivalis W50; settings: inhibition at similar concentrations to that which inhibited the PrtR45
T1 construct: made in house; host or cells: Porphyromonas gingivalis W50 (native enzyme purified from cell sonicate, not recombinant)
T1 sequence (P95493 230-736): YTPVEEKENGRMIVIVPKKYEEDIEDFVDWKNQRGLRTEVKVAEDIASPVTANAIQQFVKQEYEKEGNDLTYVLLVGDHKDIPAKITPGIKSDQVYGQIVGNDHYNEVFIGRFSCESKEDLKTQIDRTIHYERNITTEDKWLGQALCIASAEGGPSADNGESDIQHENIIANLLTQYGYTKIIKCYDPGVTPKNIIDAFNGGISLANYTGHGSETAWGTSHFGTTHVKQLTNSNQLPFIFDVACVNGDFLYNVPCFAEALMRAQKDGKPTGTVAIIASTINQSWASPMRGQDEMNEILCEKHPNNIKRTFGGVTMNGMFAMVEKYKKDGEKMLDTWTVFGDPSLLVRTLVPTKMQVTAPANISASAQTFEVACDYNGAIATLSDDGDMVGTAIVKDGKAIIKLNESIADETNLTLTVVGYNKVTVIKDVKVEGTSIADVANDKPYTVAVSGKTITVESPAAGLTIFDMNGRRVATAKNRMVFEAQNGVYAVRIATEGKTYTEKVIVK
Method: P. gingivalis W50 was grown in batch culture (5 L) and harvested at late logarithmic phase by centrifugation (5,000×g, 20 min, 4° C.). Cells were washed once with 150 ml TC buffer (20 mM Tris-HCl pH 7.4 and 5 mM CaCl2) containing 50 mM NaCl and sonicated as described previously (Bhogal et al., 1997). The sonicate was centrifuged (100,000×g, 30 min, 4° C.) and the supernatant filtered (0.22 μm) prior to anion-exchange FPLC. The sonicate was applied to an anion-exchange column (Hiload XK 16/10 Q Sepharose, Pharmacia-LKB) cooled to 4° C., in multiple injections using a 50 ml superloop (Pharmacia-LKB). The sonicate was eluted using a linear gradient from 0-100% buffer B over 90 min at a flow rate of 2.0 ml min^−1. Absorbance was monitored at 280 nm and elutant collected at 4° C. in 6 ml fractions using a Frac 100 fraction collector (Pharmacia-LKB). Buffer A was TC buffer containing 50 mM NaCl and buffer B was TC buffer containing 500 mM NaCl. Fractions were analysed for proteolytic and amidolytic activity using azocasein (A-2765, Sigma Chemical Co. St Louis, Mo.), benzoyl-L-Arg-p-nitroanilide (Bz-L-Arg-pNA, Sigma) and benzyloxycarbonyl-L-Lys-p-nitroanilide (z-L-Lys-pNA, Calbiochem, Melbourne, Australia) as described previously (Bhogal et al., 1997) except that fractions were pre-incubated with 10 mM cysteine for 10 min at 25° C. before the addition of substrate. For the amidolytic assays absorbance was monitored at 410 nm as previously described (Bhogal et al., 1997) and the amidolytic activity expressed as U where U=μmol substrate converted min^−1 at 25° C. Anion-exchange fractions eluting between 160-246 mM NaCl containing the highest ratio of Arg-specific to Lys-specific activity were, washed and concentrated in TC buffer containing 150 mM NaCl using a centripep and centricon 10 concentrators (Amicon) and applied to a gel filtration column (Superose 12, HR 10/30, Pharmacia-LKB) using TC buffer containing 150 mM NaCl at a flow rate of 0.3 ml min^−1. Absorbance was monitored at 280 nm and fractions collected at 4° C. using a Frac 100 fraction collector. The Mr values of eluant peaks were determined using gel filtration molecular mass standards (Pharmacia-LKB). The peak eluting at 50 kDa containing only Arg-specific amidolytic activity was washed in TC buffer containing 50 mM NaCl using a centricon-10 concentrator (Amicon) and applied to a Mono Q (HR 5/5) anion-exchange column using a 5 ml loop and eluted using a linear gradient of 0-100% buffer B at a flow rate 1.0 ml min^−. Buffer A was TC buffer containing 150 mM NaCl, buffer B was TC buffer containing 500 mM NaCl. Absorbance was monitored at 280 nm and fractions collected at 4° C. using a Frac 100 fraction collector.

[2] = test system: Porphyromonas gingivalis strain 33277; assay: Murine lesion (abscess) model, immunisation then P. gingivalis challenge; format: in vivo, BALB/c mice; settings: for Maximum lesion size: BALB/c mice immunised s.c. with 50 μg antigen (or 2×10^9 killed cells) in CFA then IFA, s.c. challenge 8×10^9 cells, measured over 10 days; for protection against P. gingivalis challenge (lesion size), in words: relative to DT or adjuvant alone controls
Method: BALB/c mice (6 per group) were inoculated (s.c.) with 50 μg of antigen emulsified in CFA and IFA for the primary and secondary inoculations and then challenged (s.c.) with 8×10^9 cells of P. gingivalis strain 33277.
BALB/c mice 6-8 weeks old were immunised subcutaneously with either 50 μg of the peptide-DT conjugate, 50 μg of DT or 2×10^9 formalin killed cells of Porphyromonas gingivalis strain 33277 emulsified in complete Freund's adjuvant (CFA). After 30 days the mice were injected subcutaneously with antigen (either 50 μg of the peptide-DT conjugate, 50 μg of DT or 2×10^9 formalin killed cells of Porphyromonas gingivalis strain 33277) emulsified in incomplete Freund's adjuvant (IFA) and then bled from the retrobulbar plexus 12 days later. All mice were challenged with 8×10^9 cells of P. gingivalis (200 μL) by subcutaneous injection in the abdomen and weighed and lesion size measured over 10 days. Lesion sizes are expressed as mm^2 and were statistically analysed using a Kruskal-Wallis one-way ANOVA and Mann-Whitney U-Wilcoxon rank sum W test.

[3] = test system: TLCK-inactivated PrtR-PrtK proteinase-adhesin complex; assay: Competitive binding assay (ELISA, ABM peptide-coated plates); set-up: species or system Porphyromonas gingivalis W50; settings: for binding of the PrtR-PrtK complex to the substance: TLCK-inactivated complex; for inhibition of binding of the TLCK-inactivated PrtR-PrtK complex to the adsorbed ABM peptide: competitor in solution
Method: Competitive Binding Assay
Wells of flat-bottomed polyvinyl microtitre plates (Microtitre, Dynatech Laboratories, VA) were coated overnight at 4° C. using a solution (5 mg/ml) of the adhesin binding motif (ABM) peptide in 0.1M phosphate buffered saline, pH 7.4, containing 0.1% v/v Tween 20 (PBST) and 0.1% w/v sodium azide. After removal of the coating solution, 2% w/v skim milk powder in PEST was added to block the remaining uncoated plastic for 1 hour at room temperature and then washed (4×PBST). A solution (1 mg/ml) of the PrtR-PrtK proteinase-adhesion complex (inactivated with 1 mM TLCK) was incubated with known concentrations of ABM peptide, control peptide and casein for 1 hour and then transferred to the microtitre plates coated with the ABM peptide. Following incubation for 2 hours at 37° C. the plates were washed (5×PBST). A 1/10,000 dilution of rabbit anti-PrtR-PrtK antisera in PBST containing 1% w/v skim milk powder was then added to the washed wells and incubated for 2 hours at 37° C. Bound antibody was detected by incubation with horseradish peroxidase-conjugated goat immunoglobulin (Ig) directed against rabbit Ig (BioRad, Richmond, Calif.) for 1.5 hours at 37° C. After washing (5×PBST), substrate (0.4 mM 3,3′,5,5′-tetramethylbenzidine in 0.1M sodium acetate/citric acid buffer containing 0.004% v/v hydrogen peroxide) was added and colour development was stopped by addition of 2M H2SO4. Optical density (O.D.) at 450 nm was measured using a BioRad microplate reader model 450.

Row | Compound | effect on activity of the Arg-specific 50 kDa enzyme [1] | Maximum lesion size [2] [mm^2] | other results
1 | CC(=O)N[C@@H](CC(C)C)C(=O)N[C@@H](CC(C)C)C(=O)N[C@H](C=O)CCCNC(=N)N [leupeptin] | inhibited |  | 
2 | ABM3 (K44)-OT: ABM3 (R44) peptide (SEQ ID NO: 98) conjugated to diphtheria toxoid (VTLKWDAPNGTPNPNPNPNPNPNPGTTTLSESF-NH2; not fully specified (N-terminus); also: conjugated to diphtheria toxoid; listed as Porphyromonas gingivalis) |  | 12.27 | 
3 | N[C@@H](CS)C(=O)O [cysteine] | activated |  | 
4 | Diphtheria Toxoid [DT, reference compound] |  | 33.59 | protection against P. gingivalis challenge (lesion size), in words [2]: does not provide protection
5 | ABM4 (K44)-DT: ABM4 (K44) peptide (SEQ ID NO: 35) conjugated to diphtheria toxoid (WIERTVDLPAGTKYVAFRHY-NH2; not fully specified (N-terminus); also: conjugated to diphtheria toxoid; listed as Porphyromonas gingivalis) |  | 18.83 | 
6 | O=C(O)CN(CCN(CC(=O)O)CC(=O)O)CC(=O)O [EDTA] | inhibited |  | 
7 | Control peptide-DT: Control peptide PrtR27 (1432-1463) (SEQ ID NO: 97) conjugated to diphtheria toxoid (ANEAKVVLAADNVWGDNTGYQFLLDADHNTFG; also: conjugated to diphtheria toxoid; listed as Porphyromonas gingivalis) [reference compound] |  | 36.61 | protection against P. gingivalis challenge (lesion size), in words [2]: did not provide protection
8 | NCCc1ccc(S(=O)(=O)F)cc1 [4-(2-aminoethyl)-benzenesulfonyl fluoride] | not inhibited |  | 
9 | O=S(=O)(F)Cc1ccccc1 [phenylmethyl sulfonyl fluoride] | not inhibited |  | 
10 | PAS1 (R45)-DT: PAS1 (R45) peptide (SEQ ID NO: 1) conjugated to diphtheria toxoid (FNGGISLANYTGHGSETAWGT; also: conjugated to diphtheria toxoid; listed as Porphyromonas gingivalis) |  | 10.46 | protection against P. gingivalis challenge (lesion size), in words [2]: Significantly reduced lesion size
11 | ABM5 (R15)-DT: ABM5 (R15) peptide (SEQ ID NO: 50) conjugated to diphtheria toxoid (PAEWTTIDADGDGQGW-NH2; not fully specified (N-terminus); also: conjugated to diphtheria toxoid; listed as Porphyromonas gingivalis) |  | 14.79 | 
12 | casein [reference compound] |  |  | binding of the PrtR-PrtK complex to the substance [3]: lack of binding; inhibition of binding of the TLCK-inactivated PrtR-PrtK complex to the adsorbed ABM peptide ([3]; FIG. 10): did not inhibit
13 | FNGGISLANYTGHGSETAWGT (listed as Porphyromonas gingivalis) [PAS1 (R45)] |  |  | inhibition of binding of the TLCK-inactivated PrtR-PrtK complex to the adsorbed ABM peptide ([3]; FIG. 10): did not inhibit
14 | PYQPVSNLTATTQGQKVTLKWDAPSTK [ABM1 (R45)] |  |  | molar excess of peptide in solution required to inhibit binding of the complex to the ABM peptide adsorbed onto the microtitre plate ([3]; TLCK-inactivated PrtR-PrtK complex 1 mg/ml, FIG. 10): 5-100 fold; binding of the PrtR-PrtK complex to the substance [3]: Specific binding
